Calls of active or inactive are those of the source.

Assay [1] can be described thus: HepG2 hepatoma cell viability loss – plate reader, dry powder, cytotoxicity control, dose response (AID 651947). The class given is functional, cell-based.
Assay [2] is described as follows: ATP-based viability loss in HeLa cells – cell-based, CellTiter-Glo luminescence, dry powder, set 2, cytotoxicity control, dose response (AID 720593). The class given is functional. In general terms: ATP-based viability assays read luminescence as a measure of living cells.
Assay [3] in a line: ATP-based viability loss in HEK293T cells – cell-based, CellTiter-Glo luminescence, dry powder, set 2, cytotoxicity control, dose response (AID 720595). The class given is functional. The following applies: HEK293.
Assay [4] is described as follows: PAX8-dependent cell viability loss – plate reader, dry powder, dose response (AID 743049). The class given is functional, cell-based.
In a further assay the target is Paired box protein Pax-8 (Homo sapiens, UniProt Q06710). The assay is described as follows: PAX8 transcriptional activity inhibition in RMG-I – RMG-I cells, luciferase, cherry-pick, dose response (AID 687027).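 Note: luciferase reporter driven by Pax8 target thyroperoxidase promoter measured by SteadyGlo luminescence.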 Type of assay: functional, cell-based.
Sequence of Paired box protein Pax-8 (Q06710 whole entry): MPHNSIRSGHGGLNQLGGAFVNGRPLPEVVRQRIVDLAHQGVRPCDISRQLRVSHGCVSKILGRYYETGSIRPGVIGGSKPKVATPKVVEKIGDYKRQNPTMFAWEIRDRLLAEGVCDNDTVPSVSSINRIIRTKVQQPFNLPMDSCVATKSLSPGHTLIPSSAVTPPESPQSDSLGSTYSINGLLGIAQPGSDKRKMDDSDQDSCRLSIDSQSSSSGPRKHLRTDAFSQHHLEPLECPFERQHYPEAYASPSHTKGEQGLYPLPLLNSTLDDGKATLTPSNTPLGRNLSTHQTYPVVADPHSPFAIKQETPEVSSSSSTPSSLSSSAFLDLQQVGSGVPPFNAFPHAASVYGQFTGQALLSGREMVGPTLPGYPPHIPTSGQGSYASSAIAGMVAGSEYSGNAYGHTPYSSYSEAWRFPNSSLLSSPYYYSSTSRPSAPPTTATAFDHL
The nature of assay [5]: COV434 cell viability loss – plate reader, dry powder, SA7, cytotoxicity control for PAX8 inhibitor project, dose response (AID 743145). The class given is functional, cell-based.
The nature of assay [6]: OVCAR-3 cell viability loss – plate reader, dry powder samples, PAX8 inhibitor project, dose response (AID 743044). The class given is functional, cell-based.
The nature of assay [7]: IGROV1 cell killing – plate reader, dry powder samples, PAX8 inhibitor project, dose response (AID 743043). The class given is functional, cell-based. The following applies: IGROV-1.
Assay [8] is described as follows: toxicity toward immortalized ovarian surface epithelium – cell-based, plate reader, dry powder samples, cytotoxicity control for PAX8 inhibitor project, dose response (AID 743045). Type of assay: functional.
Assay [9] is described as follows: inhibitors acting on PAX2 in cells – cell-based, plate reader, dry powder samples, selectivity assay for PAX8 inhibitor project, dose response (AID 743048).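 Note: HEK293 cells carrying a WT1 promoter luciferase reporter driven by expressed Pax2; potency is for inhibition of Pax2 driven reporter signal.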 Type of assay: functional.
A short description of assay [10]: OV-90 cell viability loss – plate reader, dry powder, SA8, PAX8 inhibitor project, dose response (AID 743149). The class given is functional, cell-based.
A short description of assay [11]: OVCAR8 cell viability loss – plate reader, dry powder samples, PAX8 project, dose response (AID 743197). Type of assay: functional, cell-based. Particulars: OVCAR-8.
The nature of assay [12]: PAX5 cellular inhibition readout – cell-based, plate reader, dry powder samples, selectivity assay for PAX8 inhibitor project, dose response (AID 743047).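 Note: HEK293 cells carrying a Pax5 driven CD19 promoter luciferase reporter; potency of inhibitors that lower reporter luminescence.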 Type of assay: functional.
A short description of assay [13]: A2780 cell killing – plate reader, dry powder samples, cytotoxicity control, dose response (AID 743046). The class given is functional, cell-based.
Assay [14] can be described thus: blockers of HIV-1 ZM109 envelope-driven cell-cell fusion – HeLa effector, CEM target cells, luciferase, cherry-pick, dose response (AID 652058).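 Note: luciferase signal from HIV-1 Env mediated cell-cell fusion of effector and target cells.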 Type of assay: functional, cell-based.
Assay [15] in a line: inhibition of Env-driven cell fusion – HIV entry, plate reader, dry powder, dose response (AID 687023). The class given is functional, cell-based.
The nature of assay [16]: blockers of HIV-1 envelope-mediated cell-cell fusion – cherry-pick, dose response (AID 652057). Type of assay: functional, cell-based.
The nature of assay [17]: anti-trypanosomal activity in BESM host cells – imaging, CA-I/72 strain, bovine embryo skeletal muscle, dry powder, dose response (AID 651885). Type of assay: functional, cell-based.
Assay [18] in a line: Trypanosoma cruzi replication inhibitors in host cells – cell-based, plate reader, dry powder samples, dose response (AID 651845). Type of assay: functional.
The nature of assay [19]: T. cruzi growth inhibition in host cells, dose response, cell-based, plate reader, dry powder, set 2 (AID 652275). The class given is functional.

The term AC50 denotes the concentration giving half of the maximal activity seen. As for `FC(F)(F)c1ccccc1CSc1nnc(-c2ccccc2)o1`, in [1], the AC50 is 23.1 µM (active).
Consider `O=C(Cc1ccccc1)NC(c1ccco1)c1ccc2cccnc2c1O` (configuration not stated), for which the AC50 in [2] is 18.1 µM (active); in assay [3], 2.56 µM (active).
On to `O=C(C[C@@H]1C[C@H]2c3cc(NS(=O)(=O)c4ccc(F)cc4)ccc3O[C@H]2[C@H](CO)O1)NCc1ccc(Cl)cc1`, for which the AC50 in [4] was 45.7 µM (active); on Paired box protein Pax-8 it was 5.93 µM (active); in [5] it was 0.000676 µM (active); in [6] it was 16.1 µM (active); in assay [7], 43 µM (active); in assay [8], 19.8 µM (active). Besides, the AC50 was 34.3 µM (active) in assay [9], 19.1 µM (active) in assay [10], 25.8 µM (active) in assay [11] and 28.1 µM (active) in [12].
As to `C[C@H](CO)N1C[C@H](C)[C@@H](CN(C)Cc2ccc(Cl)c(Cl)c2)OCCCC[C@H](C)Oc2ccc(NS(=O)(=O)c3ccc(Cl)cc3)cc2C1=O`, the AC50 was 11.5 µM (active) on Paired box protein Pax-8, > 70 µM (inactive) in assay [11] and 4.46 µM (active) in assay [13].
For the compound `Cc1noc(C)c1S(=O)(=O)Nc1cccc2c1O[C@H](CN(C)Cc1ccc(C(F)(F)F)cc1)[C@H](C)CN([C@H](C)CO)C2=O`, the values for the concentration at half-maximal activity (AC50) in assay [14], in [15] and in assay [16] were 0.935 µM (active), 2.42 µM (active) and 0.731 µM (active), respectively.
Broadly, the IC50 is the concentration that inhibits the measured activity by half. For the compound `CC(C)N1C[C@@H](C)[C@H](CN(C)Cc2ccc(Oc3ccccc3)cc2)Oc2c(cccc2N(C)C(=O)c2ccncc2)C1=O`, the half-inhibitory concentration (IC50) in assay [17] was 10 µM (inconclusive). Also, the AC50 in [18] and in assay [19] was 0.262 µM (active) throughout.
